In assay [1] the test system is Tyrosine-protein phosphatase non-receptor type 7 (Homo sapiens), P35236 [UNDEFINED MUTATION]. The assay is described as follows: Inhibition of allosterically sensitized mutant form of His6-tagged human wild-type HePTP catalytic domain at 1.92 uM using pNPP as substrate incubated for 90 mins by quenched phosphatase activity assay.
Assay [2] deals with Tyrosine-protein phosphatase non-receptor type 6 (Homo sapiens) (UniProt P29350). The assay is described as follows: Inhibition of allosterically sensitized mutant form of His6-tagged human SHP1 catalytic domain at 500 nM using pNPP as substrate incubated for 90 mins by quenched phosphatase activity assay.
Sequence of Tyrosine-protein phosphatase non-receptor type 6 (Homo sapiens) (P29350 whole entry, the tested form may be a part): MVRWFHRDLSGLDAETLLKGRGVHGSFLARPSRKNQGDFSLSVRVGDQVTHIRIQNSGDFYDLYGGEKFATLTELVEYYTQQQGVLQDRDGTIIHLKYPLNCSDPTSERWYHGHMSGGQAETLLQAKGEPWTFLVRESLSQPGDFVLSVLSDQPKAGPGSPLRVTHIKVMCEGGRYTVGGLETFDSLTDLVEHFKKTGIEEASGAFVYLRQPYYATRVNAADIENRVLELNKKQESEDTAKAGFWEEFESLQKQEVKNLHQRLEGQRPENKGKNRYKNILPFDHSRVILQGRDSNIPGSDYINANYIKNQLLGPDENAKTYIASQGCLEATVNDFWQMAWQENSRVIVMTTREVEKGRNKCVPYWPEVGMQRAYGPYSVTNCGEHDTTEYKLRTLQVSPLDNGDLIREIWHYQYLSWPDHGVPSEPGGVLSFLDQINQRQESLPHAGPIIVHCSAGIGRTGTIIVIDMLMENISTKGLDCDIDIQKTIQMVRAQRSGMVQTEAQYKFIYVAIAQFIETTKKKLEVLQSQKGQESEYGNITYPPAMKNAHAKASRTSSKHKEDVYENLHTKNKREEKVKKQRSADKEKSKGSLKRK
In assay [3] the test system is T1, Tyrosine-protein phosphatase non-receptor type 1 (Homo sapiens), P18031 [P87C,A122C].
T1 sequence (whole entry): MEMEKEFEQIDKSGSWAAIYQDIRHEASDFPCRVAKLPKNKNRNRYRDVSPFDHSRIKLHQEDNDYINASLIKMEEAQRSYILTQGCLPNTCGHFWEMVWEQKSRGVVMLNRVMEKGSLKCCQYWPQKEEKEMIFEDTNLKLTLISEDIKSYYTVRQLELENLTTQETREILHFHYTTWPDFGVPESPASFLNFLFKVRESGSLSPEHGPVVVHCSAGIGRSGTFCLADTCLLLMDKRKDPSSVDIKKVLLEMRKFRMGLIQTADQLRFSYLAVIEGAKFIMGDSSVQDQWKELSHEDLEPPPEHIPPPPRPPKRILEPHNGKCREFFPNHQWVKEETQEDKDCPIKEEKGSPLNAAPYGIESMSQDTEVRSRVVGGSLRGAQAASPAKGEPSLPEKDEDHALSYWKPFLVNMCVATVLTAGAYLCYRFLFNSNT
In words: Inhibition of allosterically sensitized His6-tagged human PTP1B catalytic domain P87C/A122C mutant at 250 nM using pNPP as substrate incubated for 90 mins by quenched phosphatase activity assay.

Assay [4] concerns T2, Tyrosine-protein phosphatase non-receptor type 7 (Homo sapiens), P35236 [P171C,V205C].
T2 sequence (whole entry): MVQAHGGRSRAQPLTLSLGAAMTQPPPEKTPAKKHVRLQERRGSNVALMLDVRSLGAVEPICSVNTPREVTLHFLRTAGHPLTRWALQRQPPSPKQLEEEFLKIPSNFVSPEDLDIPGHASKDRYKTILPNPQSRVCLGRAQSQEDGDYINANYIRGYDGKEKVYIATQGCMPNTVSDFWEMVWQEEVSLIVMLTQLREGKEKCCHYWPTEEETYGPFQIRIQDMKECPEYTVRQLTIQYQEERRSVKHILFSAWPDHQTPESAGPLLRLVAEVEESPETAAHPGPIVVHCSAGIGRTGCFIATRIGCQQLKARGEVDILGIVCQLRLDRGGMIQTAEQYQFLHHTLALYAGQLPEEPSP
In words: Inhibition of allosterically sensitized mutant form of His6-tagged human HePTP catalytic domain at 500 nM using pNPP as substrate incubated for 90 mins by quenched phosphatase activity assay.

Assay [5] shares this test system. The assay is described as follows: Inhibition of allosterically sensitized mutant form of His6-tagged human HePTP catalytic domain at 1 uM using pNPP as substrate measured up to 10 mins by quenched phosphatase activity assay.
A further assay is filed under the species Homo sapiens. In words: Inhibition of His6-tagged human wild-type PTP catalytic domain at 500 nM using pNPP as substrate incubated for 90 mins by quenched phosphatase activity assay.
The target of assay [6] is T3, Tyrosine-protein phosphatase non-receptor type 7 (Homo sapiens) (UniProt P35236).
T3 sequence (whole entry): T2 sequence (whole entry) with C171P, C205V
In words: Inhibition of His6-tagged human wild-type HePTP catalytic domain at 1 uM using pNPP as substrate incubated for 90 mins by quenched phosphatase activity assay.

The subject of assay [7] is T2, Tyrosine-protein phosphatase non-receptor type 7 (Homo sapiens), P35236 [P171C,V205C]. In words: Inhibition of allosterically sensitized mutant form of His6-tagged human HePTP catalytic domain using pNPP as substrate incubated for 90 mins by quenched phosphatase activity assay.
Assay [8] concerns the target Tyrosine-protein phosphatase non-receptor type 13 (Homo sapiens) (UniProt Q12923). In words: Inhibition of allosterically sensitized mutant form of His6-tagged human FAP1 catalytic domain at 500 nM using pNPP as substrate incubated for 90 mins by quenched phosphatase activity assay.
In assay [9] the target is T4, Tyrosine-protein phosphatase non-receptor type 11 (Homo sapiens) (UniProt Q06124).
T4 sequence (whole entry): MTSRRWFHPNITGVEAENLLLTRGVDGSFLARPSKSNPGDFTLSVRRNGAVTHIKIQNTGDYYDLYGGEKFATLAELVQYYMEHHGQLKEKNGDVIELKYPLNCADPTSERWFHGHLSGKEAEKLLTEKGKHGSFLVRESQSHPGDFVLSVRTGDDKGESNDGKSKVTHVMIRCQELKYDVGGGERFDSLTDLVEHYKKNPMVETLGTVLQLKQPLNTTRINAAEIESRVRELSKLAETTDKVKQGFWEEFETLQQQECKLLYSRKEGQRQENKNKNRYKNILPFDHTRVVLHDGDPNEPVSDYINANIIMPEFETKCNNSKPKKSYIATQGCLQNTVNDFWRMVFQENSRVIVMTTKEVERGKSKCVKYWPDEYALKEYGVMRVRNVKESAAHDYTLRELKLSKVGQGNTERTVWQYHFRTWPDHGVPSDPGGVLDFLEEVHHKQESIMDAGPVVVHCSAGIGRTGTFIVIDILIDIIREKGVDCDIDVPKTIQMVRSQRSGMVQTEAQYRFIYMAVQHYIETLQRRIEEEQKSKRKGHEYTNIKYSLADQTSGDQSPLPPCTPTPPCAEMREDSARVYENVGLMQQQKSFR
In words: Inhibition of allosterically sensitized mutant form of His6-tagged human SHP2 containing SHP1 and […] SH2 domain at 500 nM at 500 nM using pNPP as substrate incubated for 90 mins by quenched phosphatase activity assay.

For assay [10], the target named is T4, Tyrosine-protein phosphatase non-receptor type 11 (Homo sapiens). In words: Inhibition of allosterically sensitized mutant form of His6-tagged human SHP2 catalytic domain at 500 nM at 500 nM using pNPP as substrate incubated for 90 mins by quenched phosphatase activity assay.

Numbering of substitutions follows the chain as printed. Active and inactive are the calls of the source. No cut-off for these calls is given here.

Data on eight compounds can be found in ChEMBL document CHEMBL4118135, “Optimized allosteric inhibition of engineered protein tyrosine phosphatases with an expanded palette of biarsenical small molecules” (Bioorg Med Chem, 2018).

Sequence of Tyrosine-protein phosphatase non-receptor type 7 (Homo sapiens), P35236 [UNDEFINED MUTATION] (P35236 whole entry, looked up, stated change not applied, the tested form may be a part): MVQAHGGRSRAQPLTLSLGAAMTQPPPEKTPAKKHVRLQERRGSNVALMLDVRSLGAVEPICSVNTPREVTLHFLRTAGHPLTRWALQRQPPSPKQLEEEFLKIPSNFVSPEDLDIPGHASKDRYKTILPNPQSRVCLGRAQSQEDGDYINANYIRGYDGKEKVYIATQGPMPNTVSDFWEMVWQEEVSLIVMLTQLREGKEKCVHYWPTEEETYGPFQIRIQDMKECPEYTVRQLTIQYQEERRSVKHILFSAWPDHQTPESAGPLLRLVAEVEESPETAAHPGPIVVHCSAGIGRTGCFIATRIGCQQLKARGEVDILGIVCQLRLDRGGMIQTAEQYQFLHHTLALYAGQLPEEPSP
Sequence of Tyrosine-protein phosphatase non-receptor type 13 (Homo sapiens) (Q12923 whole entry, the tested form may be a part): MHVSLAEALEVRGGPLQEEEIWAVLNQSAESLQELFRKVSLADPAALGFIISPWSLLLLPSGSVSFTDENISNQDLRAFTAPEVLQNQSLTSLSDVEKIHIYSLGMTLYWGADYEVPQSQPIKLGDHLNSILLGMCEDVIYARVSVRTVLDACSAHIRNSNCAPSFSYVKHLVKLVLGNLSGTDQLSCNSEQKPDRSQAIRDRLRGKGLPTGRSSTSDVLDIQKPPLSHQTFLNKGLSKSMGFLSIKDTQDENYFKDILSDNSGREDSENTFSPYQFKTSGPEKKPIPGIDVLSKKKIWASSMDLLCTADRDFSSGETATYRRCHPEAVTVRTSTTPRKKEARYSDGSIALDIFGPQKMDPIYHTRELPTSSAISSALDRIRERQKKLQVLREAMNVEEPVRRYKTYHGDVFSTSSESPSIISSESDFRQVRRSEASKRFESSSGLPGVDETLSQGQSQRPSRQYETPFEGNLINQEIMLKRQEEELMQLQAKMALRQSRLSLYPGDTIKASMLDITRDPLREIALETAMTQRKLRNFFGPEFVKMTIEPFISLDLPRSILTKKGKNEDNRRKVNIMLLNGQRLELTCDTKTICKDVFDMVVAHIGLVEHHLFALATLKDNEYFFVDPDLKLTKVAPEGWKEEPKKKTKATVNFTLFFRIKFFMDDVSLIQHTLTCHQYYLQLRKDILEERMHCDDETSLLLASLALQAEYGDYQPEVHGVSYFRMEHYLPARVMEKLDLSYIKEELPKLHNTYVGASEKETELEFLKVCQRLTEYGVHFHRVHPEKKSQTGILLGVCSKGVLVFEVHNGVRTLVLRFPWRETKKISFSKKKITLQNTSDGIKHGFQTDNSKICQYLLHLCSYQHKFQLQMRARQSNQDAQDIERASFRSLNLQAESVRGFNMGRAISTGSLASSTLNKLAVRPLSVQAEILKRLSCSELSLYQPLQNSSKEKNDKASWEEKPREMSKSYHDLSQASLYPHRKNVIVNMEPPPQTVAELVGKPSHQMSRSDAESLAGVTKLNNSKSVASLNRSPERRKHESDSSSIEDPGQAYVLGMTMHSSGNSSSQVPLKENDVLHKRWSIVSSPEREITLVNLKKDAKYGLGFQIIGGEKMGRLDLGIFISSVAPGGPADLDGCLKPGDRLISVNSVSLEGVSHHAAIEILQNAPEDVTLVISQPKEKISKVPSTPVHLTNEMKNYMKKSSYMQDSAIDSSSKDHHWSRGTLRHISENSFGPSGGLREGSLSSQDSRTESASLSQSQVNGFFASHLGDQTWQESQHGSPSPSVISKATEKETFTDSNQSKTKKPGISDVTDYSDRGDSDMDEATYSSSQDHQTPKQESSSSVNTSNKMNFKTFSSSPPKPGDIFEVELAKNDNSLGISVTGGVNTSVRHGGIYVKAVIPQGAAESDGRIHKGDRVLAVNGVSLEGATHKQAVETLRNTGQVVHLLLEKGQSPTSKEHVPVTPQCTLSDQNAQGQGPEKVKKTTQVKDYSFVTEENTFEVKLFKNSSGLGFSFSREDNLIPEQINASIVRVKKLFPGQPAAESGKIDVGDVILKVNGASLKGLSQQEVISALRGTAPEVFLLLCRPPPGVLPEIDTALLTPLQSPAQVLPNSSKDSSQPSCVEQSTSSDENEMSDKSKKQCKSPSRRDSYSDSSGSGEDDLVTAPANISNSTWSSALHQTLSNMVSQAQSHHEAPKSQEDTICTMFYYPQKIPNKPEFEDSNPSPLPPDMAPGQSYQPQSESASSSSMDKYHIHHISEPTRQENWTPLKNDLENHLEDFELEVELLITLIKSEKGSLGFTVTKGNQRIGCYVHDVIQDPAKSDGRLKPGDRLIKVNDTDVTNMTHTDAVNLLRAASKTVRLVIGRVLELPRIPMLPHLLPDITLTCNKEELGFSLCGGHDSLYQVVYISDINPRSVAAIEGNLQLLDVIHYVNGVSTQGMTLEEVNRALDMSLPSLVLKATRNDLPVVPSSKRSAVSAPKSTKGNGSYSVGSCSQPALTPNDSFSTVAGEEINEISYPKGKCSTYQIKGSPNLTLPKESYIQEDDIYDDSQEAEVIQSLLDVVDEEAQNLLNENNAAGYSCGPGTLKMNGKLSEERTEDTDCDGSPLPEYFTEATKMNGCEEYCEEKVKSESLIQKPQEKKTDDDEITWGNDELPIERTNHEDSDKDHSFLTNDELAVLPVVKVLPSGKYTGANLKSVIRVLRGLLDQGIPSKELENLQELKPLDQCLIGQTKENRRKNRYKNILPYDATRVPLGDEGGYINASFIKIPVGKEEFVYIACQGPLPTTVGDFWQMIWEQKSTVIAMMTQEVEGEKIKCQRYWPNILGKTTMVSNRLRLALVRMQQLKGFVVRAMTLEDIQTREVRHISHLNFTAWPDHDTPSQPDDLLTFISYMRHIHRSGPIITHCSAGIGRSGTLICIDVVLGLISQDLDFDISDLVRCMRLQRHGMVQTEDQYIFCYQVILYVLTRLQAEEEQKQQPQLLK

In general, inhibition refers to the share of the control response that was lost under treatment. As for `CCCCNC(=O)c1ccc(-c2c3ccc(=O)c([As]4SCCS4)c-3oc3c([As]4SCCS4)c(O)ccc23)c(C(=O)O)c1`, the inhibition entry in assay [1] was “Active”.

Regarding `CCc1cc2c(-c3ccccc3C(=O)O)c3cc(CC)c(=O)c([As]4SCCS4)c-3oc2c([As]2SCCS2)c1O`, in assay [1], the inhibition entry was “Active”.

In the case of `O=c1ccc2nc3ccc(O)c([As]4SCCS4)c3oc-2c1[As]1SCCS1`, the inhibition result (in [2]; in assay [3]; in assay [4]; in the assay filed under Homo sapiens; in [8]) was “Active” throughout. Moreover, the inhibition is 50% in [5] and “Dose-dependent effect” in [7]. In assay [6], the inhibition result was “inactive”.

As to `O=C(O)c1ccccc1-c1c2cc(F)c(=O)c([As]3SCCS3)c-2oc2c([As]3SCCS3)c(O)c(F)cc12`, in assay [1], the inhibition result was “Active”.

In the case of `O=C(O)c1ccc(-c2c3ccc(=O)c([As]4SCCS4)c-3oc3c([As]4SCCS4)c(O)ccc23)c(C(=O)O)c1`, the inhibition result in assay [1] was “Active”.

Regarding `O=C(O)c1c(F)c(F)c(F)c(F)c1-c1c2ccc(=O)c([As]3SCCS3)c-2oc2c([As]3SCCS3)c(O)ccc12`, the inhibition entry in assay [1] was “Active”.

For `O=C(O)c1ccccc1-c1c2cc(Cl)c(=O)c([As]3SCCS3)c-2oc2c([As]3SCCS3)c(O)c(Cl)cc12`, the inhibition result in assay [1] was “Active”.

For the compound `CC1(C)C(/C=C/C=C/C=C2/N(CCCCS(=O)(=O)O)c3ccc([As]4SCCS4)cc3C2(C)C)=[N+](CCCCS(=O)(=O)O)c2ccc([As]3SCCS3)cc21`, the inhibition result (in [2]; in assay [3]; in assay [4]; in the assay listed under Homo sapiens; in assay [8]) was “Active” each time. The inhibition result in [9] and in assay [10] was “inactive” throughout.
